Assay results as given in PubChem BioAssay AID1919009 (Molecular Pharmacology Branch, DTP, NCI, 2023).

System: K24384-001-R-PDC complex spheroid growth
Experiment: Anticancer human tumor K24384-001-R-PDC patient-derived pancreatic adenocarcinoma cell line growth inhibition [AhR]
Conditions: for IC50: curve of first compound; for viability, T/C: stronger effect = lower value
How it was run: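 Agents were dosed in half-log steps down from roughly clinical Cmax, or from 10 microM where Cmax was unknown, alone and with AhR antagonists. Read-out: percent test/control growth of tumor spheroids containing HUVEC and MSC stromal cells.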

[1] = second compound 0.1 µM, first compound 0.0316 µM
[2] = second compound 0.1 µM, first compound 0.1 µM
[3] = second compound 0.1 µM, first compound 0.316 µM
[4] = second compound 0.1 µM, first compound 1 µM
[5] = second compound 0.316 µM, first compound 0.0316 µM
[6] = second compound 0.316 µM, first compound 0.1 µM
[7] = second compound 0.316 µM, first compound 0.316 µM
[8] = second compound 0.316 µM, first compound 1 µM
[9] = second compound 1 µM, first compound 0.0316 µM
[10] = second compound 1 µM, first compound 0.1 µM
[11] = second compound 1 µM, first compound 0.316 µM
[12] = second compound 1 µM, first compound 1 µM
[13] = second compound 3.16 µM, first compound 0.0316 µM
[14] = second compound 3.16 µM, first compound 0.1 µM
[15] = second compound 3.16 µM, first compound 0.316 µM
[16] = second compound 3.16 µM, first compound 1 µM
[17] = second compound 10 µM, first compound 0.0316 µM
[18] = second compound 10 µM, first compound 0.1 µM
[19] = second compound 10 µM, first compound 0.316 µM
[20] = second compound 10 µM, first compound 1 µM
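Wherever viability, T/C is given: percent of DMSO vehicle-treated spheroid viability set as 100%.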

Which results are given for `CC(C)c1c(-c2ccccc2)nc2c(C#N)c[nH]n2c1=O` + Cc1ccccc1N=Nc1ccc(NC(=O)c2ccnn2C)c(C)c1?
IC50 (second compound 0.1 µM): > 10 µM; IC50 (second compound 0.316 µM): > 10 µM; IC50 (second compound 1 µM): > 10 µM; IC50 (second compound 3.16 µM): > 10 µM; IC50 (second compound 10 µM): > 10 µM; viability, T/C [1]: 114%; viability, T/C [2]: 121%; viability, T/C [3]: 123%; viability, T/C [4]: 108%; viability, T/C (second compound 0.1 µM, first compound 3.16 µM): 88.8%; viability, T/C (second compound 0.1 µM, first compound 10 µM): 86.2%; viability, T/C [5]: 112%; viability, T/C [6]: 124%; viability, T/C [7]: 121%; viability, T/C [8]: 128%; viability, T/C (second compound 0.316 µM, first compound 3.16 µM): 104%; viability, T/C (second compound 0.316 µM, first compound 10 µM): 89.7%; viability, T/C [9]: 117%; viability, T/C [10]: 109%; viability, T/C [11]: 113%; viability, T/C [12]: 103%; viability, T/C (second compound 1 µM, first compound 3.16 µM): 105%; viability, T/C (second compound 1 µM, first compound 10 µM): 109%; viability, T/C [13]: 98.2%; viability, T/C [14]: 109%; viability, T/C [15]: 124%; viability, T/C [16]: 114%; viability, T/C (second compound 3.16 µM, first compound 3.16 µM): 90.8%; viability, T/C (second compound 3.16 µM, first compound 10 µM): 122%; viability, T/C [17]: 132%; viability, T/C [18]: 141%; viability, T/C [19]: 114%; viability, T/C [20]: 119%; viability, T/C (second compound 10 µM, first compound 3.16 µM): 126%; viability, T/C (second compound 10 µM, first compound 10 µM): 119%

For `CC1COCCN1c1cc(-c2ccnn2C)c2ccnc(-c3ccn[nH]3)c2n1` (stereo not given) + Cc1ccccc1N=Nc1ccc(NC(=O)c2ccnn2C)c(C)c1, which IC50 (second compound 0.1 µM) is on record?
Its IC50 is 0.103 µM.

And the IC50 (second compound 0.316 µM)?
Its IC50 is 0.105 µM.

And the IC50 (second compound 1 µM)?
The IC50 was 0.0948 µM.

And the IC50 (second compound 3.16 µM)?
The IC50 was 0.0991 µM.

And the IC50 (second compound 10 µM)?
Its IC50 is 0.168 µM.

And the viability, T/C (second compound 0.1 µM, first compound 0.00316 µM)?
The viability, T/C was 101%.

What about the viability, T/C (second compound 0.1 µM, first compound 0.01 µM) of the same compound?
Its viability, T/C is 107%.

What about the viability, T/C [1] of the same compound?
Its viability, T/C is 82.2%.

And the viability, T/C [2]?
Its viability, T/C is 52.3%.

What about the viability, T/C [3] of the same compound?
Its viability, T/C is 29.6%.

What about the viability, T/C [4] of the same compound?
The viability, T/C was 28.2%.

What about the viability, T/C (second compound 0.316 µM, first compound 0.00316 µM) of the same compound?
Its viability, T/C is 114%.

What about the viability, T/C (second compound 0.316 µM, first compound 0.01 µM) of the same compound?
The viability, T/C was 120%.

And the viability, T/C [5]?
Its viability, T/C is 80.5%.

What about the viability, T/C [6] of the same compound?
The viability, T/C was 54.2%.

What about the viability, T/C [7] of the same compound?
The viability, T/C was 32.5%.

What about the viability, T/C [8] of the same compound?
The viability, T/C was 26.7%.

What about the viability, T/C (second compound 1 µM, first compound 0.00316 µM) of the same compound?
Its viability, T/C is 103%.

What about the viability, T/C (second compound 1 µM, first compound 0.01 µM) of the same compound?
The viability, T/C was 99.5%.

And the viability, T/C [9]?
The viability, T/C was 102%.

And the viability, T/C [10]?
The viability, T/C was 47.5%.

What about the viability, T/C [11] of the same compound?
Its viability, T/C is 29.1%.

And the viability, T/C [12]?
Its viability, T/C is 28.6%.

What about the viability, T/C (second compound 3.16 µM, first compound 0.00316 µM) of the same compound?
Its viability, T/C is 101%.

And the viability, T/C (second compound 3.16 µM, first compound 0.01 µM)?
The viability, T/C was 92.1%.

And the viability, T/C [13]?
Its viability, T/C is 82.1%.

And the viability, T/C [14]?
The viability, T/C was 48.7%.

What about the viability, T/C [15] of the same compound?
Its viability, T/C is 33.4%.

And the viability, T/C [16]?
The viability, T/C was 28.5%.

And the viability, T/C (second compound 10 µM, first compound 0.00316 µM)?
The viability, T/C was 129%.

What about the viability, T/C (second compound 10 µM, first compound 0.01 µM) of the same compound?
Its viability, T/C is 128%.

And the viability, T/C [17]?
The viability, T/C was 108%.

What about the viability, T/C [18] of the same compound?
The viability, T/C was 57.1%.

What about the viability, T/C [19] of the same compound?
Its viability, T/C is 39.7%.

What about the viability, T/C [20] of the same compound?
Its viability, T/C is 42.4%.
